Experiments:
[1] = target: T1, ABL1(Y253F)-phosphorylated (Homo sapiens, UniProt P00519, Y253F); assay: KinomeScan; format: binding; details: read-out: % control
T1 construct: purchased DiscoveRx KINOMEscan

[2] = target: T2, ABL1(F317L)-nonphosphorylated (Homo sapiens, UniProt P00519, F317L); assay: KinomeScan; format: binding; details: read-out: % control
T2 construct: purchased DiscoveRx KINOMEscan

FLT3(ITD,D835V) = assay: KinomeScan; format: binding; details: 1μM
PFCDPK1(P.falciparum) = target: T3, PFCDPK1(P.falciparum) (Plasmodium falciparum, UniProt P62344); assay: KinomeScan; format: binding; details: read-out: % control
T3 construct: purchased DiscoveRx KINOMEscan

YES = target: T4, YES (Homo sapiens, UniProt P07947); assay: KinomeScan; format: binding; details: read-out: % control
T4 construct: purchased DiscoveRx KINOMEscan

BRSK2 = target: T5, BRSK2 (Homo sapiens, UniProt Q8IWQ3); assay: KinomeScan; format: binding; details: read-out: % control
T5 construct: purchased DiscoveRx KINOMEscan

DRAK1 = target: T6, DRAK1 (Homo sapiens, UniProt Q9UEE5); assay: KinomeScan; format: binding; details: read-out: % control
T6 construct: purchased DiscoveRx KINOMEscan

PRKCH = target: T7, PRKCH (Homo sapiens, UniProt P24723); assay: KinomeScan; format: binding; details: read-out: % control
T7 construct: purchased DiscoveRx KINOMEscan

CHO = assay: Anti-proliferation, normal cells (CellTiter-Glo); details: Cricetulus griseus, 72 h
Protocol: Cells were grown in 96-well culture plates (2500-3000/well). For adherent cell lines, compounds of various concentrations were added into the plates after cells were cultured for 12 hours. Cell proliferation was determined after treatment with compounds for 72 hours. Cell viability was measured using the CellTiter–Glo assay (Promega, USA) according to the manufacturer's instructions, and luminescence was measured in a multi-label reader (Envision, PerkinElmer, USA). Data were normalized to control groups (DMSO) and represented by the mean of three independent measurements with standard error <20%. GI50 values were calculated using Prism 5.0 (GraphPad Software, San Diego, CA).

[3] = target: RPS6KA4(Kin.Dom.2-C-terminal) (Homo sapiens, UniProt O75676); assay: KinomeScan; format: binding; details: read-out: % control
[4] = target: T8, TYK2(JH1domain-catalytic) (Homo sapiens, UniProt P29597); assay: KinomeScan; format: binding; details: read-out: % control
T8 construct: TYK2(JH1domain-catalytic); purchased DiscoveRx KINOMEscan

BLK [5] = target: T9, BLK (Homo sapiens, UniProt P51451); assay: KinomeScan; format: binding; details: read-out: % control
T9 construct: purchased Invitrogen (SelectScreen service)

HER4 = target: T10, HER4 (Homo sapiens, UniProt Q15303); assay: Invitrogen SelectScreen biochemical assay
T10 construct: purchased Invitrogen (SelectScreen service)
Source text: (§1) In order to better understand CHMFL-EGFR-26's selectivity, we then tested it in DiscoveRx's KinomeScan™ assay. […] Given the fact that KinomeScan™ is a binding assay and sometimes cannot truly reflect the compound inhibitory activity, we then used Invitrogen SelectScreen® assay to test these potential off-targets (Supplementary Table 2). […] This was not surprising because EGFR, JAK3, HER2, HER4 and TEC family kinases (BTK, BLK and BMX) all share a similar cysteine residue at the identical position analogous to Cys 797 in EGFR in the hinge binding area.
(§2) www.impactjournals.com/oncotarget/ Oncotarget, Supplementary Materials 2017
(§3) KinomeScan Profiling by invitrogen SelectScreen® assay
(§4) (1 picture or pasted object on this page, not shown here)

JAK3 = target: T11, JAK3 (Homo sapiens, UniProt P52333); assay: Invitrogen SelectScreen biochemical assay
T11 construct: purchased Invitrogen (SelectScreen service)
Source text: as §1, §2, §3, §4

MEK1 = target: T12, MEK1 (Homo sapiens, UniProt Q02750); assay: Invitrogen SelectScreen biochemical assay
T12 construct: purchased Invitrogen (SelectScreen service)
Source text: as §1, §2, §3, §4

BMX = target: T13, BMX (Homo sapiens, UniProt P51813); assay: Invitrogen SelectScreen biochemical assay
T13 construct: purchased Invitrogen (SelectScreen service)
Source text: as §1, §2, §3, §4

BTK = target: T14, BTK (Homo sapiens, UniProt Q06187); assay: Invitrogen SelectScreen biochemical assay
T14 construct: purchased Invitrogen (SelectScreen service)
Source text: as §1, §2, §3, §4

BLK [6] = target: T9, BLK; assay: Invitrogen SelectScreen biochemical assay
Source text: as §1, §2, §3, §4

HER2 = target: T15, HER2 (Homo sapiens, UniProt P04626); assay: Invitrogen SelectScreen biochemical assay
T15 construct: purchased Invitrogen (SelectScreen service)
Source text: as §1, §2, §3, §4

AURKA = target: T16, AURKA (Homo sapiens, UniProt O14965); assay: KinomeScan; format: binding; details: read-out: % control
T16 construct: purchased DiscoveRx KINOMEscan

PFPK5(P.falciparum) = target: T17, PFPK5(P.falciparum) (Plasmodium falciparum, UniProt P61075); assay: KinomeScan; format: binding; details: read-out: % control
T17 construct: purchased DiscoveRx KINOMEscan

PIK3CA(E545K) = target: T18, PIK3CA(E545K) (Homo sapiens, UniProt P42336, E545K); assay: KinomeScan; format: binding; details: read-out: % control
T18 construct: purchased DiscoveRx KINOMEscan

MAP4K2 = target: T19, MAP4K2 (Homo sapiens, UniProt Q12851); assay: KinomeScan; format: binding; details: read-out: % control
T19 construct: purchased DiscoveRx KINOMEscan

PIK3CA(Q546K) = target: T20, PIK3CA(Q546K) (Homo sapiens, UniProt P42336, Q546K); assay: KinomeScan; format: binding; details: read-out: % control
T20 construct: purchased DiscoveRx KINOMEscan

BaF3-INSR = assay: Anti-proliferative effects, INSR transformed isogenic BaF3 cells; format: cell-based; details: Mus musculus, read-out: IC50 (anti-proliferative; GI50)
PRKCE = target: T21, PRKCE (Homo sapiens, UniProt Q02156); assay: KinomeScan; format: binding; details: read-out: % control
T21 construct: purchased DiscoveRx KINOMEscan

MAPKAPK5 = target: T22, MAPKAPK5 (Homo sapiens, UniProt Q8IW41); assay: KinomeScan; format: binding; details: read-out: % control
T22 construct: purchased DiscoveRx KINOMEscan

TIE2 = target: T23, TIE2 (Homo sapiens, UniProt Q02763); assay: KinomeScan; format: binding; details: read-out: % control
T23 construct: purchased DiscoveRx KINOMEscan

LATS1 = target: T24, LATS1 (Homo sapiens, UniProt O95835); assay: KinomeScan; format: binding; details: read-out: % control
T24 construct: purchased DiscoveRx KINOMEscan

[7] = target: T25, ABL1(Q252H)-nonphosphorylated (Homo sapiens, UniProt P00519, Q252H); assay: KinomeScan; format: binding; details: read-out: % control
T25 construct: purchased DiscoveRx KINOMEscan

CDK9 = target: T26, CDK9 (Homo sapiens, UniProt P50750); assay: KinomeScan; format: binding; details: read-out: % control
T26 construct: purchased DiscoveRx KINOMEscan

ACVRL1 = target: T27, ACVRL1 (Homo sapiens, UniProt P37023); assay: KinomeScan; format: binding; details: read-out: % control
T27 construct: purchased DiscoveRx KINOMEscan
T27 sequence (P37023 22-503): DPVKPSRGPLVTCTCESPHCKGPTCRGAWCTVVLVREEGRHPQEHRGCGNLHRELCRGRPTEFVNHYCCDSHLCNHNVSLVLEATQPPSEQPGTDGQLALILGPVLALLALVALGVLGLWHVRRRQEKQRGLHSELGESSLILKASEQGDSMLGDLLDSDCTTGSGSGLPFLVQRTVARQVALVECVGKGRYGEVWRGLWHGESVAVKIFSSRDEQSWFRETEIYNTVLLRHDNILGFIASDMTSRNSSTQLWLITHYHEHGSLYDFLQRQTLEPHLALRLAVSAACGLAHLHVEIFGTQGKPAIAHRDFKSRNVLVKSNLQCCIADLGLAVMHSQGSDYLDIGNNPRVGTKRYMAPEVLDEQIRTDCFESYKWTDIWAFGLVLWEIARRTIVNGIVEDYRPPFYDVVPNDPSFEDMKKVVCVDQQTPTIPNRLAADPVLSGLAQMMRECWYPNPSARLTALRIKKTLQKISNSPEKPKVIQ

T9 sequence (P51451 whole entry): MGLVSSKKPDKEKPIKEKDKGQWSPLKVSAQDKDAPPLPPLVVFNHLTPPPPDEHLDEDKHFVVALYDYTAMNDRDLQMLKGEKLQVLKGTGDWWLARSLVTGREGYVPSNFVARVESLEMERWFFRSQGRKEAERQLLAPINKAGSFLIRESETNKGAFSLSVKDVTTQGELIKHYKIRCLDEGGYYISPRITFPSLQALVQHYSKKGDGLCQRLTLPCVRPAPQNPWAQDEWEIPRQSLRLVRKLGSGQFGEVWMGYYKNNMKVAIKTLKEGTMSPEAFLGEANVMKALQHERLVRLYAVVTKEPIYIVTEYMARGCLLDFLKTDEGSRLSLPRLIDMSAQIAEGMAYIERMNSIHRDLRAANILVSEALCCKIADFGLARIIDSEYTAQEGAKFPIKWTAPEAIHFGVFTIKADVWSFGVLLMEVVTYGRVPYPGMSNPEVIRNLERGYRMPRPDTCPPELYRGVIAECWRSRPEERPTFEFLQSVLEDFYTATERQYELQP
T12 sequence (Q02750 whole entry): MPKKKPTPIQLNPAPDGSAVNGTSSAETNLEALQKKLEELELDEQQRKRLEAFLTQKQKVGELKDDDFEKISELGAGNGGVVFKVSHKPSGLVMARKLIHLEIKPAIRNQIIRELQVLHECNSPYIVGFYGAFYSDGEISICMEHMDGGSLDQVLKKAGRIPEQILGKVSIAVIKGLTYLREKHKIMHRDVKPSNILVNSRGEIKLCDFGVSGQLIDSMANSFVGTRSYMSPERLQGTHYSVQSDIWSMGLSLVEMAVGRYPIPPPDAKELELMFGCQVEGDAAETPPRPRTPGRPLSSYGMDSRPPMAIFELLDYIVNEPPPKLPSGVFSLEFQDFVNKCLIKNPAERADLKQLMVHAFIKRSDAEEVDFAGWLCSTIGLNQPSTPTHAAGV
T22 sequence (Q8IW41 whole entry): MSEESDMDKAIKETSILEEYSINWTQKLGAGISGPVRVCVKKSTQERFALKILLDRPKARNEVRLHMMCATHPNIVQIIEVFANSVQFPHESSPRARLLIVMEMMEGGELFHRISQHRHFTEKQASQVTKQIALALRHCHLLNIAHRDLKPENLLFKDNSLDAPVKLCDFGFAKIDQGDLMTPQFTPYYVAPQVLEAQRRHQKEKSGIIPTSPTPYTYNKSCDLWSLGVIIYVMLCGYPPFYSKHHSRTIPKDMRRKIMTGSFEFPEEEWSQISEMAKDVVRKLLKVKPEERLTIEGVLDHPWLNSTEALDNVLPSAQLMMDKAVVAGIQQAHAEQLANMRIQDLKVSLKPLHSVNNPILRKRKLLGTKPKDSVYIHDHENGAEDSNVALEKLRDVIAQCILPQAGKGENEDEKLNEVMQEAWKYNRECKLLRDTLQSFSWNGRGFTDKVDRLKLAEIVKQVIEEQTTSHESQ
T7 sequence (P24723 whole entry): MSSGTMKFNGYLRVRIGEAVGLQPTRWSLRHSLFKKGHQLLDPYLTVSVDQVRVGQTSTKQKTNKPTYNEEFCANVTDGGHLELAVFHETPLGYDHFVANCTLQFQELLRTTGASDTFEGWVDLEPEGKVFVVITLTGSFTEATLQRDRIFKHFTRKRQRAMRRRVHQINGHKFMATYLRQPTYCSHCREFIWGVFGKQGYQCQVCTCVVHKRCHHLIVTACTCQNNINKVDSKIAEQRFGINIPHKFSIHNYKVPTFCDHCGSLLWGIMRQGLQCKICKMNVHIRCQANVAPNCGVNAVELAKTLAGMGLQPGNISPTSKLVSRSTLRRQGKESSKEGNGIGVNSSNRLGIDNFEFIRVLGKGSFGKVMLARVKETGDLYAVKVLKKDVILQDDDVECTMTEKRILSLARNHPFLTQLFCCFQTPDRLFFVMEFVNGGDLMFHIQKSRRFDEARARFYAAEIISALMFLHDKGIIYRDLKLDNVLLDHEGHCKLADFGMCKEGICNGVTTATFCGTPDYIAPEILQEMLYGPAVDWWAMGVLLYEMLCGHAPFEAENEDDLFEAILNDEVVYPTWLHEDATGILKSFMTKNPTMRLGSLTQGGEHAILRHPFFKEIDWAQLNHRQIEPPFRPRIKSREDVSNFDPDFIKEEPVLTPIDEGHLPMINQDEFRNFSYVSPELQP
T17 sequence (P61075 whole entry): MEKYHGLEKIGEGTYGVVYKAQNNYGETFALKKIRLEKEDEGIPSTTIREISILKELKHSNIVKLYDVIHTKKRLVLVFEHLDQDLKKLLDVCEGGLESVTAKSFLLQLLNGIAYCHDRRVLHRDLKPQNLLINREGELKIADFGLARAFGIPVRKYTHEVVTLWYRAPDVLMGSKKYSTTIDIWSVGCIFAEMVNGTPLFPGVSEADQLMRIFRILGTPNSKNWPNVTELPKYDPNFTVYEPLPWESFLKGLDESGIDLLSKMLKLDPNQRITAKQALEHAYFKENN
T13 sequence (P51813 whole entry): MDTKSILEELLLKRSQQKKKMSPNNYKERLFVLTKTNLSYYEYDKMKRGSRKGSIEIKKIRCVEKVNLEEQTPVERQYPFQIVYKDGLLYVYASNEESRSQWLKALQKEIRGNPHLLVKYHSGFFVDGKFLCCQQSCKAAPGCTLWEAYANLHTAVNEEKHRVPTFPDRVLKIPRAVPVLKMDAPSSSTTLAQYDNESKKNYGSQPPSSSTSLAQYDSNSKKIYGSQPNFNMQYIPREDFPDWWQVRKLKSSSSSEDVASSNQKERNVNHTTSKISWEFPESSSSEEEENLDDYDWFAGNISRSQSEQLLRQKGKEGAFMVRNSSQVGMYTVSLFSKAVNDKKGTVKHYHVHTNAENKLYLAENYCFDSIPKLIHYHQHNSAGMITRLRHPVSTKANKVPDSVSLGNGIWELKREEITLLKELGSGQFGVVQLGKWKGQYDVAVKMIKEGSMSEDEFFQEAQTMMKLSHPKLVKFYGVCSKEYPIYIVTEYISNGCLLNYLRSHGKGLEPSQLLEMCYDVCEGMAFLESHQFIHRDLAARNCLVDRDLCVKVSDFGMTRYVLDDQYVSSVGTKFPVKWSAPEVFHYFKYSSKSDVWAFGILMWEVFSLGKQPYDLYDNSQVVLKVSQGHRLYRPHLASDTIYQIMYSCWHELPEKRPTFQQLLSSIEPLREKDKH
T23 sequence (Q02763 23-1124): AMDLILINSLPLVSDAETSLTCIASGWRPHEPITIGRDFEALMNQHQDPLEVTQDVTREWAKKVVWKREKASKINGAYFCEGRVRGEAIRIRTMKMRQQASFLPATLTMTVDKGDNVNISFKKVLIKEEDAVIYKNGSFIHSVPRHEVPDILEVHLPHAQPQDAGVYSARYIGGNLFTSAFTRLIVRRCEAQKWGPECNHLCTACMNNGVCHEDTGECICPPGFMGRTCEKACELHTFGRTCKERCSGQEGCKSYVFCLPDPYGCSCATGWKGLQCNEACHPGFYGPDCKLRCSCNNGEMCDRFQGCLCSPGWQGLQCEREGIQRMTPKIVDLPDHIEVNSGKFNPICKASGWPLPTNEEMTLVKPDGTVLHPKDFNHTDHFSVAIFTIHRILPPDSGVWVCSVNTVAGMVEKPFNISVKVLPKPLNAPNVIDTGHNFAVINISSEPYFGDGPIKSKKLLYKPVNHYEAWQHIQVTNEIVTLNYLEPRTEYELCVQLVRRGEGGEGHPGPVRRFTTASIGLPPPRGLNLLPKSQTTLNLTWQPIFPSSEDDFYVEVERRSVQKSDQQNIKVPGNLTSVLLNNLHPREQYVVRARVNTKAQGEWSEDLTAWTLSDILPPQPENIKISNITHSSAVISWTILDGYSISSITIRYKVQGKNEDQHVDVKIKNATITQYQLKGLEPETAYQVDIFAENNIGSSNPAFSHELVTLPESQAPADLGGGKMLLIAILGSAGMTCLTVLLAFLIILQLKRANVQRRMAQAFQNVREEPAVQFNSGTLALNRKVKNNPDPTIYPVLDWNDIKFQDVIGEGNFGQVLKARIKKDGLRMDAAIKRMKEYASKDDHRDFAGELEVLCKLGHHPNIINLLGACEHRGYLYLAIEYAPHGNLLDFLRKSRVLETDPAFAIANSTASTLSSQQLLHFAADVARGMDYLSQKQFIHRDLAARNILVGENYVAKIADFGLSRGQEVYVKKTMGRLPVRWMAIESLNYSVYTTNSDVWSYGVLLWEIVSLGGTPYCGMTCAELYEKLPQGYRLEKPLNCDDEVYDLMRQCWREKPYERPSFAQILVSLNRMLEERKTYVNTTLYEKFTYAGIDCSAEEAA
T8 sequence (P29597 871-1187 limits assumed): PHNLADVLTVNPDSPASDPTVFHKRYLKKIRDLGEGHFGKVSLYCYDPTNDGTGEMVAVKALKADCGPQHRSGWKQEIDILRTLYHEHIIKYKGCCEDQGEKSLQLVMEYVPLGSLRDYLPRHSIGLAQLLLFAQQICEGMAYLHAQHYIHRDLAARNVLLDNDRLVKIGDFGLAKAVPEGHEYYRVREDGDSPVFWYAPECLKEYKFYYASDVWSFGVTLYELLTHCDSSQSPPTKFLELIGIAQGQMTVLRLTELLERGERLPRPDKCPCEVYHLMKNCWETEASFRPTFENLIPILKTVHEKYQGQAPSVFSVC

C=CC(=O)N1CCC[C@@H](n2nc(-c3ccc(OCc4cccc(C)n4)c(Cl)c3)c3c(N)ncnc32)C1 [CHMFL-EGFR-26]
remaining binding at 1 µM [1]: 100%
remaining binding at 1 µM [2]: 100%
% control (FLT3(ITD,D835V)): 99%
remaining binding at 1 µM (PFCDPK1(P.falciparum)): 54%
remaining binding at 1 µM (YES): 65%
remaining binding at 1 µM (BRSK2): 97%
remaining binding at 1 µM (DRAK1): 100%
remaining binding at 1 µM (PRKCH): 70%
GI50 (CHO): > 10000 nM
remaining binding at 1 µM [3]: 100%
remaining binding at 1 µM [4]: 100%
remaining binding at 1 µM (BLK [5]): 0.35%
IC50 (HER4): 5.39 nM
IC50 (JAK3): 30.6 nM
IC50 (MEK1): 131 nM
IC50 (BMX): 38.9 nM
IC50 (BTK): 16.3 nM
IC50 (BLK [6]): 3.9 nM
IC50 (HER2): 15.9 nM
remaining binding at 1 µM (AURKA): 97%
remaining binding at 1 µM (PFPK5(P.falciparum)): 100%
remaining binding at 1 µM (PIK3CA(E545K)): 81%
remaining binding at 1 µM (MAP4K2): 100%
remaining binding at 1 µM (PIK3CA(Q546K)): 83%
IC50 (BaF3-INSR): 2800 nM
remaining binding at 1 µM (PRKCE): 99%
remaining binding at 1 µM (MAPKAPK5): 100%
remaining binding at 1 µM (TIE2): 78%
remaining binding at 1 µM (LATS1): 82%
remaining binding at 1 µM [7]: 100%
remaining binding at 1 µM (CDK9): 90%
remaining binding at 1 µM (ACVRL1): 100%

From article PMC5392334, “Discovery and characterization of a novel irreversible EGFR mutants selective and potent kinase inhibitor CHMFL-EGFR-26 with a distinct binding mode” (Oncotarget, 2017)
